The source of these data is US20090012103A1, “SUBSTITUTED HETEROCYCLIC COMPOUNDS” (priority 2007, published 2009).

Each structure is given as a SMILES string.

The target of one assay is wild-type human cardiac sodium channel, hNav1.5 (Homo sapiens, UniProt Q14524). Put plainly: Late INa screening assay (late sodium current, PatchXpress whole cell patch clamp). It counts as cell-based. Particulars: compound at 10 μM; read-out: Late INa % blk. How it is done: The late sodium current (Late INa) and peak sodium current (Peak INa) assays are performed on an automated electrophysiology platform, PatchXpress 7000A (MDS Analytical Technologies, Sunnyvale, Calif.), which uses the whole cell patch clamp technique to measure currents through the cell membrane of up to 16 cells at a time. The assay uses an HEK293 (human embryonic kidney) cell line heterologously expressing the wild-type human cardiac sodium channel, hNav1.5, purchased from Millipore (Billerica, Mass.). No beta subunits were coexpressed with the Na channel alpha subunit. […] Experiments are carried out at 24-27° C.
Sequence of wild-type human cardiac sodium channel, hNav1.5 (Q14524 whole entry): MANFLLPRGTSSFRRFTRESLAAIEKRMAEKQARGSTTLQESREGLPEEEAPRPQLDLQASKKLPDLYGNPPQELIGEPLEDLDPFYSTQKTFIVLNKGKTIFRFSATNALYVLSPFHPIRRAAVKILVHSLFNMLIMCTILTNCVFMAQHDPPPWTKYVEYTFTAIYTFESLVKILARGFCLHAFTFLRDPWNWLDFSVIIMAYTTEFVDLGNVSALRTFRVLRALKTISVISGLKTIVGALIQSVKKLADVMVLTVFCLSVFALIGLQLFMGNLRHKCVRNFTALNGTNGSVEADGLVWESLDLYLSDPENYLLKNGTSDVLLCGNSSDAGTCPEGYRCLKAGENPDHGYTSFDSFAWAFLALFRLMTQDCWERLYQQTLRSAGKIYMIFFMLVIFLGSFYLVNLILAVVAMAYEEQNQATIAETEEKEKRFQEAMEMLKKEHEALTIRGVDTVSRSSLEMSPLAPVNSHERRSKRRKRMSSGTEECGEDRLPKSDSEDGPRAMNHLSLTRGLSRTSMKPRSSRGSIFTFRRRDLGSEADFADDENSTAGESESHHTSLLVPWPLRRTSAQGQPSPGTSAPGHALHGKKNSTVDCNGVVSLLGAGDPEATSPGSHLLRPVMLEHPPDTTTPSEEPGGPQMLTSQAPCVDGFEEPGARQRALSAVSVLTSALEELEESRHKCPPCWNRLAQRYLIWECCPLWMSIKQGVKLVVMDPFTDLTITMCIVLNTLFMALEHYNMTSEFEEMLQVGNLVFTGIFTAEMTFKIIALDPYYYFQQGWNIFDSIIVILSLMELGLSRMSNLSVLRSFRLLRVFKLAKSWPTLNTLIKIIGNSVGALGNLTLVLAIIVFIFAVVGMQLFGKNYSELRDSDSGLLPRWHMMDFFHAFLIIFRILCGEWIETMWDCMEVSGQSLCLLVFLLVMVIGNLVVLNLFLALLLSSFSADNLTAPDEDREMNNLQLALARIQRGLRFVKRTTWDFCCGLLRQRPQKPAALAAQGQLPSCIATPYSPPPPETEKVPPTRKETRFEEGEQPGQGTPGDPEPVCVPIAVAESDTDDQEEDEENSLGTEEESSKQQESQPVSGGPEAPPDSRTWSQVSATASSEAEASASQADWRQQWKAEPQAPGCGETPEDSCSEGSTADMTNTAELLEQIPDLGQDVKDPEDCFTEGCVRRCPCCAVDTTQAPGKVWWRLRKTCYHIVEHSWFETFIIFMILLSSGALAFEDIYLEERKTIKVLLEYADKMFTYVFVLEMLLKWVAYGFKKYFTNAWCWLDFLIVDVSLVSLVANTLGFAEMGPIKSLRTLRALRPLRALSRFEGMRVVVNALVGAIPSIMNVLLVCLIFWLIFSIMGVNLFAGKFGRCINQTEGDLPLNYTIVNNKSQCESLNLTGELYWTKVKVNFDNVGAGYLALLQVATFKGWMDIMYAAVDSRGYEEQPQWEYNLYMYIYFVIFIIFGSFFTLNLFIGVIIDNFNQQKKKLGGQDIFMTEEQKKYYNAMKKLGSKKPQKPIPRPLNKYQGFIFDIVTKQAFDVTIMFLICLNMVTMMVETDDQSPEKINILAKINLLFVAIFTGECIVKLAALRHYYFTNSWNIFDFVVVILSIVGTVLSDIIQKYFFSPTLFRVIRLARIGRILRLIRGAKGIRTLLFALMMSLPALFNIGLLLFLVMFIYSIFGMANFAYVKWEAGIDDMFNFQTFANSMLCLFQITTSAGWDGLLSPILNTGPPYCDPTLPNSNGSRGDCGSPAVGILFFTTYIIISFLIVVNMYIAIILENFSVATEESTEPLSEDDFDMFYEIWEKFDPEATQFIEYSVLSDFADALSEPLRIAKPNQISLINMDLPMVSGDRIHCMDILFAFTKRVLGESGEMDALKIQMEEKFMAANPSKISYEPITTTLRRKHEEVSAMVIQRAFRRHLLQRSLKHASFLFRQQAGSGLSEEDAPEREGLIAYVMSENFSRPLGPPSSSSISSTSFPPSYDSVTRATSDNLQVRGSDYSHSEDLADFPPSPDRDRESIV
For both the Late INa and Peak INa assays, series resistance compensation is set to 50% and whole-cell compensation is performed automatically. […] Currents through open sodium channels are automatically recorded and stored in the DataXpress2 database (MDS Analytical Technologies, Sunnyvale, Calif.). Analysis is performed using DataXpress2 analysis software and data are compiled in Excel.
Compound stocks are routinely made in glass vials to 10 mM in dimethyl sulfoxide (DMSO). In some cases, when compounds are not soluble in DMSO, they are made in 100% ethanol. Stocks are sonicated as necessary. The extracellular solution for screening Late INa is composed of: 140 mM NaCl, 4 mM KCl, 1.8 mM CaCl2, 0.75 mM MgCl2, and 5 mM HEPES with pH adjusted to 7.4 using NaOH. The extracellular solution for screening Peak INa is composed of: 20 mM NaCl, 120 mM N-methyl-D glucamine, 4 mM KCl, 1.8 mM CaCl2, 0.75 mM MgCl2, and 5 mM HEPES with pH adjusted to 7.4 using HCl. The intracellular solution used to perfuse the inside of the cells for both the Late INa and Peak INa assays contains: 120 mM CsF, 20 mM CsCl, 5 mM EGTA, 5 mM HEPES and pH adjusted to 7.4 with CsOH. Compounds are diluted in extracellular solution to 10 μM in glass vials and then transferred to glass well plates before robotic addition to the cells. The 0 Na extracellular solution used at the end of each experiment for the Late INa and Peak INa assays to measure baseline current contains: 140 mM N-methyl-D-glucamine; 4 mM KCl; 1.8 mM CaCl2; 0.75 mM MgCl2; 5 mM HEPES and pH was adjusted to 7.4 with HCl.
For the Late INa assay, sodium channels are activated every 10 seconds (0.1 Hz) by depolarizing the cell membrane to −20 mV for 250 milliseconds (ms) from a holding potential of −120 mV.
All compounds are tested to determine their activity in blocking the late sodium current. Late INa current is generated by adding 10 μM Tefluthrin (pyrethroid) to the extracellular solution while recording Na currents. […] For some experiments, 50 nM ATX II (sea anemone toxin), another late INa activator, was used to generate the late component. […] Baseline current in the absence of Na^+ ions is measured at the end of each experiment (after two additions of 0 Na solution-see above) and is used to calculate the percent block by compound.
In general terms: In patch-clamp work, channel activity is measured electrically.
With `CC1=C(C(=O)OCc2ccc(Oc3ccccc3)cc2)C(c2cccc3ccccc23)n2nnnc2N1` (centres unmarked) [PT-003, 4-phenoxybenzyl 5-methyl-7-(naphthalen-1-yl)-4,7-dihydrotetrazolo[1,5-a]pyrimidine-6-carboxylate], the inhibition at 10 µM amounted to 14.5%.

Turning to `CC1=C(C(=O)OCc2ccc(-c3ccccc3)cc2)C(c2cccc3ccccc23)n2nnnc2N1` (centres unmarked) [PT-004, biphenyl-4-ylmethyl 5-methyl-7-(naphthalen-1-yl)-4,7-dihydrotetrazolo[1,5-a]pyrimidine-6-carboxylate], the inhibition at 10 µM amounted to 25.5%.

For the compound `CC1=C(C(=O)OCc2ccccc2-c2ccccc2)C(c2cccc3ccccc23)n2nnnc2N1` (centres unmarked) [PT-005, biphenyl-2-ylmethyl 5-methyl-7-(naphthalen-1-yl)-4,7-dihydrotetrazolo[1,5-a]pyrimidine-6-carboxylate], the inhibition at 10 µM came out at 25.4%.

For the compound `CC1=C(C(=O)OCc2cccc(-c3ccccc3)c2)C(c2cccc3ccccc23)n2nnnc2N1` (centres unmarked) [PT-006, biphenyl-3-ylmethyl 5-methyl-7-(naphthalen-1-yl)-4,7-dihydrotetrazolo[1,5-a]pyrimidine-6-carboxylate], the inhibition at 10 µM worked out at 5.4%.

In the case of `CC1=C(C(=O)OC(c2ccc(F)cc2)c2ccc(F)cc2)C(c2cccc3ccccc23)n2nnnc2N1` (centres unmarked) [PT-007, bis(4-fluorophenyl)methyl 5-methyl-7-(naphthalen-1-yl)-4,7-dihydrotetrazolo[1,5-a]pyrimidine-6-carboxylate], the inhibition at 10 µM stood at 44%.

For the compound `CCOC(=O)C1=C(C(F)(F)F)Nc2nnnn2C1c1cccc2ccccc12` (centres unmarked) [PT-009, ethyl 7-(naphthalen-1-yl)-5-(trifluoromethyl)-4,7-dihydrotetrazolo[1,5-a]pyrimidine-6-carboxylate], the inhibition at 10 µM was found to be 8.2%.

As for `CCOC(=O)C1=C(CC)Nc2nnnn2C1c1ccc2ccccc2c1` (centres unmarked) [PT-011, ethyl 5-ethyl-7-(naphthalen-2-yl)-4,7-dihydrotetrazolo[1,5-a]pyrimidine-6-carboxylate], the inhibition at 10 µM stood at 37.7%.

With `CCOC(=O)C1=C(C(C)C)Nc2nnnn2C1c1ccc2ccccc2c1` (centres unmarked) [PT-012, ethyl 5-isopropyl-7-(naphthalen-2-yl)-4,7-dihydrotetrazolo[1,5-a]pyrimidine-6-carboxylate], the inhibition at 10 µM was determined as 40.1%.

As to `CCOC(=O)C1=C(C)N(C)c2nnnn2C1c1cccc2ccccc12` (centres unmarked) [PT-015, ethyl 4,5-dimethyl-7-(naphthalen-1-yl)-4,7-dihydrotetrazolo[1,5-a]pyrimidine-6-carboxylate], the inhibition at 10 µM came to 27.2%.

For `CCOC(=O)C1=C(C(F)(F)F)Nc2nnnn2C1c1cccs1` (centres unmarked) [PT-016, ethyl 7-(thiophen-2-yl)-5-(trifluoromethyl)-4,7-dihydrotetrazolo[1,5-a]pyrimidine-6-carboxylate], the inhibition at 10 µM came to 30.7%.

Regarding `CC1=C(C(=O)OC(C)C)C(c2ccc3ccccc3c2)n2nnnc2N1` (centres unmarked) [PT-020, isopropyl 5-methyl-7-(naphthalen-2-yl)-4,7-dihydrotetrazolo[1,5-a]pyrimidine-6-carboxylate], the inhibition at 10 µM is 47.7%.

Turning to `CC1=C(C(=O)OC(C)(C)C)C(c2ccc3ccccc3c2)n2nnnc2N1` (centres unmarked) [PT-022, tert-butyl 5-methyl-7-(naphthalen-2-yl)-4,7-dihydrotetrazolo[1,5-a]pyrimidine-6-carboxylate], the inhibition at 10 µM amounted to 26%.

For the compound `CC1=C(C(=O)OC(C)(C)C)C(c2cccc3ccccc23)n2nnnc2N1` (centres unmarked) [PT-023, tert-butyl 5-methyl-7-(naphthalen-1-yl)-4,7-dihydrotetrazolo[1,5-a]pyrimidine-6-carboxylate], the inhibition at 10 µM came out at 32.8%.

For the compound `CC1=C(C(=O)OCc2ccccc2)C(c2cccc(-c3ccccc3)c2)n2nnnc2N1` (centres unmarked) [PT-026, benzyl 7-(biphenyl-3-yl)-5-methyl-4,7-dihydrotetrazolo[1,5-a]pyrimidine-6-carboxylate], the inhibition at 10 µM was 10.3%.

Turning to `CC1=C(C(=O)OCc2ccccc2)C(c2ccc3ccccc3c2)n2nnnc2N1` (centres unmarked) [PT-028, benzyl 5-methyl-7-(naphthalen-2-yl)-4,7-dihydrotetrazolo[1,5-a]pyrimidine-6-carboxylate], the inhibition at 10 µM worked out at 23.1%.

On to `CC1=C(C(=O)OCc2ccc(I)cc2)C(c2cccc3ccccc23)n2nnnc2N1` (centres unmarked) [PT-029, 4-iodobenzyl 5-methyl-7-(naphthalen-1-yl)-4,7-dihydrotetrazolo[1,5-a]pyrimidine-6-carboxylate], for which the inhibition at 10 µM worked out at 52.1%.

As for `CC1=C(C(=O)OCc2ccccc2)C(c2ccc(C)c3ccccc23)n2nnnc2N1` (centres unmarked) [PT-031, benzyl 5-methyl-7-(4-methylnaphthalen-1-yl)-4,7-dihydrotetrazolo[1,5-a]pyrimidine-6-carboxylate], the inhibition at 10 µM worked out at 28.6%.

Turning to `COc1ccc2c(C3C(C(=O)OCc4ccccc4)=C(C)Nc4nnnn43)ccc(OC)c2c1` (centres unmarked) [PT-033, benzyl 7-(4,6-dimethoxynaphthalen-1-yl)-5-methyl-4,7-dihydrotetrazolo[1,5-a]pyrimidine-6-carboxylate], the inhibition at 10 µM worked out at 23.3%.

On to `CC1=C(C(=O)OCc2ccccc2)C(c2ccc3c(c2)OCCO3)n2nnnc2N1` (centres unmarked) [PT-035, benzyl 7-(2,3-dihydrobenzo[b][1,4]dioxin-6-yl)-5-methyl-4,7-dihydrotetrazolo[1,5-a]pyrimidine-6-carboxylate], for which the inhibition at 10 µM worked out at 44%.

As for `CC1=C(C(=O)OCc2ccccc2)C(c2cccc3c2OCCO3)n2nnnc2N1` (centres unmarked) [PT-036, benzyl 7-(2,3-dihydrobenzo[b][1,4]dioxin-5-yl)-5-methyl-4,7-dihydrotetrazolo[1,5-a]pyrimidine-6-carboxylate], the inhibition at 10 µM is 41%.

Regarding `CC1=C(C(=O)OCc2ccccc2)C(c2cccc3cccnc23)n2nnnc2N1` (centres unmarked) [PT-037, benzyl 5-methyl-7-(quinolin-8-yl)-4,7-dihydrotetrazolo[1,5-a]pyrimidine-6-carboxylate], the inhibition at 10 µM was determined as 34.4%.

Consider `CC1=C(C(=O)OCc2ccccc2)C(c2cccc3ncccc23)n2nnnc2N1` (centres unmarked) [PT-038, benzyl 5-methyl-7-(quinolin-5-yl)-4,7-dihydrotetrazolo[1,5-a]pyrimidine-6-carboxylate], for which the inhibition at 10 µM stood at 11.9%.

Turning to `CC1=C(C(=O)OCc2ccccc2)C(c2ccsc2)n2nnnc2N1` (centres unmarked) [PT-041, benzyl 5-methyl-7-(thiophen-3-yl)-4,7-dihydrotetrazolo[1,5-a]pyrimidine-6-carboxylate], the inhibition at 10 µM stood at 41.4%.

The assay is the same for the next values; noted with them: read-out: Late INa % blk.
Turning to `CC1=C(C(=O)OC2CCCc3ccccc32)C(c2cccc3ccccc23)n2nnnc2N1` (centres unmarked) [PT-001, 1,2,3,4-tetrahydronaphthalen-1-yl 5-methyl-7-(naphthalen-1-yl)-4,7-dihydrotetrazolo[1,5-a]pyrimidine-6-carboxylate], the inhibition at 10 µM amounted to 28.8%.

Regarding `CCOC(=O)C1=C(C(C)C)Nc2nnnn2C1c1cccc2ccccc12` (centres unmarked) [PT-013, ethyl 5-isopropyl-7-(naphthalen-1-yl)-4,7-dihydrotetrazolo[1,5-a]pyrimidine-6-carboxylate], the inhibition at 10 µM worked out at 45.4%.

Consider `CC1=C(C(=O)OCc2ccccc2)C(c2cccc(Oc3ccccc3)c2)n2nnnc2N1` (centres unmarked) [PT-024, benzyl 5-methyl-7-(3-phenoxyphenyl)-4,7-dihydrotetrazolo[1,5-a]pyrimidine-6-carboxylate], for which the inhibition at 10 µM was 72.6%.
